Experimental data taken from patent US20230002359A1, “PESTICIDALLY ACTIVE FUSED BICYCLIC HETEROAROMATIC COMPOUNDS” (priority 2019, published 2023).

How the values were obtained:
[1] = system: Plutella xylostella (Diamond Back Moth); experiment: Example B4: Plutella xylostella (diamond back moth), artificial diet, eggs, 24-well; format: in vivo; details: 192 h, application rate of 200 ppm, 8 days after infestation, eggs, read-out: control in at least one of the two categories (mortality or growth inhibition)
Description: 24-well microtiter plates with artificial diet were treated with aqueous test solutions prepared from 10′000 ppm DMSO stock solutions by pipetting. After drying, Plutella eggs were pipetted through a plastic stencil onto a gel blotting paper and the plate was closed with it. The samples were assessed for mortality and growth inhibition in comparison to untreated samples 8 days after infestation.

[2] = system: Plutella xylostella (Diamondback Moth); experiment: Example B9: Plutella xylostella (diamondback moth), artificial diet, eggs, 96-well; format: in vivo; details: 216 h, application rate of 500 ppm, 9 days after infestation, read-out: control in mortality
Description: 96-well microtiter plates containing artificial diet were treated with aqueous test solutions, prepared from 10′000 ppm DMSO stock solutions, by a liquid handling robot. After drying, eggs (˜30 per well) were infested onto a netted lid which was suspended above the diet. The eggs hatch and L1 larvae move down to the diet. The samples were assessed for mortality 9 days after infestation.

[3] = system: Chilo suppressalis (Striped Rice Stemborer); experiment: Example B3: Chilo suppressalis (striped rice stemborer), artificial diet, L2 larvae; format: in vivo; details: 144 h, application rate of 200 ppm, 6 days after infestation, L2 larvae, read-out: control in at least one of the three categories (mortality, anti-feedant effect, or growth inhibition)
Summary of the method: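 Diet-incorporation surface assay: aqueous dilutions of 10'000 ppm DMSO stock applied to artificial diet, dried; 6-8 L2 larvae/well; read day 6 post-infestation for mortality, antifeedant effect, growth inhibition vs untreated. Active if any category above untreated.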

[4] = system: Spodoptera littoralis (Egyptian Cotton Leaf Worm); experiment: Example B7: Spodoptera littoralis (Egyptian cotton leaf worm), cotton leaf discs sprayed, L1 larvae; format: in vivo; details: foliar, 72 h, application rate of 200 ppm, 3 days after infestation, L1 larvae, read-out: control in at least one of the three categories (mortality, anti-feedant effect, or growth inhibition)
Summary of the method: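 Five L1 larvae per sprayed, dried cotton leaf disc on agar. Activity is counted when mortality, anti-feedant effect or growth inhibition exceeds the untreated sample at day 3.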

[5] = system: Diabrotica Balteata (Corn Root Worm); experiment: Example B1: Diabrotica balteata (corn root worm), maize sprouts sprayed, L2 larvae; format: in vivo; details: 96 h, application rate of 200 ppm, 4 days after infestation, L2 larvae, read-out: control in at least one of the two categories (mortality or growth inhibition)
Summary of the method: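 Maize sprouts on agar were sprayed with aqueous test solutions made from 10′000 ppm DMSO stocks, dried, then infested with 6 to 10 L2 larvae per well. Mortality and growth inhibition were scored against untreated samples 4 days after infestation.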

[6] = system: Myzus persicae (Green Peach Aphid); experiment: Example B6: Myzus persicae (green peach aphid) intrinsic activity, sucrose solution; format: in vivo; details: 120 h, test rate of 12 ppm, 5 days after infestation, intrinsic activity, read-out: mortality
Summary of the method: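 Compounds from 10′000 ppm DMSO stocks were mixed into sucrose solution in 24-well plates sealed with Parafilm. Aphid-infested pea seedlings were set on the membrane and the plate inverted so aphids fed through it. Mortality scored 5 days after infestation.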

SMILES | melting point | mortality at 500 ppm [2] | also measured
C[C@@H](c1ncnn1-c1ccc(-c2nnn[nH]2)cn1)N(C)c1ncnc2c(C(F)(F)F)cc(Cl)cc12 | 77 to 79 °C |  | 
C[C@H](Nc1c(C#N)cnc2c(C(F)(F)F)cc(C(F)(F)F)cc12)c1ncnn1-c1ncccn1 | 203 to 205 °C |  | 
C[C@H](Nc1c(C#N)cnc2c(C(F)(F)F)cc(C(F)(F)F)cc12)c1ncnn1-c1ccc(C#N)cn1 | 204 to 206 °C |  | 
C[C@@H](c1ncnn1-c1ccc(-c2nccs2)cn1)N(C)c1ncnc2c(C(F)(F)F)cc(Cl)cc12 | 142 to 144 °C |  | 
C[C@@H](c1ncnn1-c1ncccn1)N(C)c1ncnc2c(C(F)(F)F)cc(C3CC3)cc12 | 182 to 184 °C |  | 
C[C@@H](c1ncnn1-c1ccc(-c2noc(C(F)(F)F)n2)cn1)N(C)c1ncnc2c(C(F)(F)F)cc(Cl)cc12 | 75 to 77 °C |  | 
CC(Nc1ncnc2c(Cl)cc(C(F)(F)F)cc12)c1ncnn1-c1ccc(OC(F)F)cn1 (stereo not drawn) | 240 to 242 °C |  | 
CC(c1ncnn1-c1ccc(OC(F)F)cn1)N(C)c1ncnc2c(Cl)cc(C(F)(F)F)cc12 (stereo not drawn) | 102 to 104 °C |  | 
CC(c1ncnn1-c1ccc(OC(F)F)cn1)N(C)c1ncnc2c(Br)cc(C(F)(F)F)cc12 (stereo not drawn) | 75 to 77 °C |  | 
C[C@@H](c1ncnn1-c1ccc(C(N)=O)cn1)N(C)c1ncnc2c(C(F)(F)F)cc(C(F)(F)F)cc12 | 183 to 185 °C |  | 
C[C@@H](c1ncnn1-c1ccc(C(N)=NO)cn1)N(C)c1ncnc2c(C(F)(F)F)cc(Cl)cc12 | 223 to 225 °C |  | 
CC(c1nccnc1-c1ccc(Br)cn1)N(C)c1ncnc2c(Cl)cc(C(F)(F)F)cc12 (stereo not drawn) | 142 to 144 °C |  | 
CC(Nc1ncnc2c(Cl)cc(C(F)(F)F)cc12)c1nccnc1-c1ccc(Br)cn1 (stereo not drawn) | 230 to 232 °C |  | 
CC(c1nccnc1-c1ccc(C#N)cn1)N(CC1CC1)c1ncnc2c(C(F)(F)F)cc(Cl)cc12 (stereo not drawn) | 254 to 256 °C |  | 
CC(Nc1ncnc2c(Cl)c(F)c(Cl)cc12)c1ncnn1-c1ccc(C#N)cn1 (stereo not drawn) | 215 to 225 °C |  | 
CC(c1ncnn1-c1ccc(C#N)cn1)N(C)c1ncnc2c(Cl)c(F)c(Cl)cc12 (stereo not drawn) | 145 to 155 °C |  | 

SMILES | melting point | mortality at 500 ppm [2] | also measured
CC(Nc1ncnc2c(C(F)(F)F)cc(Br)cc12)c1ncnn1-c1ccc(F)cn1 (stereo not drawn) | 282 to 284 °C |  | 
CC(Nc1c(C#N)cnc2c(C(F)(F)F)cc(C(F)(F)F)cc12)c1ncnn1-c1ccc(C#N)cn1 (stereo not drawn) | 261 to 263 °C |  | 
CC(Nc1ncnc2c(C(F)(F)F)cc(Cl)cc12)c1ncnn1-c1ccc(Br)cn1 (stereo not drawn) | 274 to 276 °C |  | 
CC(c1ncnn1-c1ncccn1)N(CC1CC1)c1nc(Cl)nc2c(Br)cc(C(F)(F)F)cc12 (stereo not drawn) | 87 to 89 °C |  | 
CC(Nc1ncnc2c(C(F)(F)F)cc(Br)cc12)c1ncnn1-c1ccc(Br)cn1 (stereo not drawn) | 214 to 216 °C |  | 
Cc1nc(NC(C)c2ncnn2-c2ccc(C#N)cn2)c2cc(C(F)(F)F)cc(C(F)(F)F)c2n1 (stereo not drawn) [P.60, 6-[5-[1-[[2-methyl-6,8-bis(trifluoromethyl)quinazolin-4-yl]amino]ethyl]-1,2,4-triazol-1-yl]pyridine-3-carbonitrile] |  | ≥ 80% | percent control (mortality or growth inhibition) at 200 ppm [1]: ≥ 80%; percent control (mortality, anti-feedant effect or growth inhibition) at 200 ppm [3]: ≥ 80%
CC(Nc1ncnc2c(C(F)(F)F)cc(C(F)(F)F)cc12)c1ncnn1-c1ccc(C#N)cn1 (stereo not drawn) [P.61, 6-[5-[1-[[6,8-bis(trifluoromethyl)quina-zolin-4-yl]amino]ethyl]-1,2,4-triazol-1-yl]pyridine-3-carbonitrile] |  | ≥ 80% | percent control (mortality or growth inhibition) at 200 ppm [1]: ≥ 80%; percent control (mortality, anti-feedant effect or growth inhibition) at 200 ppm [4]: ≥ 80%; percent control (mortality, anti-feedant effect or growth inhibition) at 200 ppm [3]: ≥ 80%
CC(Nc1ncnc2c(C(F)(F)F)cccc12)c1ncnn1-c1ccc(C#N)cn1 (stereo not drawn) [P.62, 6-[5-[1-[[8-(trifluoromethyl)quinazolin-4-yl]amino]ethyl]-1,2,4-triazol-1-yl]pyridine-3-carbonitrile] |  | ≥ 80% | percent control (mortality or growth inhibition) at 200 ppm [1]: ≥ 80%; percent control (mortality, anti-feedant effect or growth inhibition) at 200 ppm [3]: ≥ 80%
CC(Nc1ncnc2c(C(F)(F)F)cc(Br)cc12)c1ncnn1-c1ccc(C#N)cn1 (stereo not drawn) [P.63, 6-[5-[1-[[6-bromo-8-(trifluoromethyl)quinazolin-4-yl]amino]ethyl]-1,2,4-triazol-1-yl]pyridine-3-carbonitrile] |  | ≥ 80% | percent control (mortality or growth inhibition) at 200 ppm [1]: ≥ 80%; percent control (mortality, anti-feedant effect or growth inhibition) at 200 ppm [4]: ≥ 80%; percent control (mortality, anti-feedant effect or growth inhibition) at 200 ppm [3]: ≥ 80%
CC(Nc1ncnc2ccc(C(F)(F)F)cc12)c1ncnn1-c1ccc(C#N)cn1 (stereo not drawn) [P.64, 6-[5-[1-[[6-(trifluoromethyl)quinazolin-4-yl]amino]ethyl]-1,2,4-triazol-1-yl]pyridine-3-carbonitrile] |  | ≥ 80% | percent control (mortality or growth inhibition) at 200 ppm [1]: ≥ 80%; percent control (mortality, anti-feedant effect or growth inhibition) at 200 ppm [4]: ≥ 80%; percent control (mortality, anti-feedant effect or growth inhibition) at 200 ppm [3]: ≥ 80%; percent control (mortality or growth inhibition) at 200 ppm [5]: ≥ 80%
CC(Nc1ncnc2c(Cl)cc(Cl)cc12)c1ncnn1-c1ccc(C#N)cn1 (stereo not drawn) [P.65, 6-[5-[1-[(6,8-dichloroquinazolin-4-yl)amio]ethyl]-1,2,4-triazol-1-yl]pyridine-3-carbonitrile] |  | ≥ 80% | percent control (mortality or growth inhibition) at 200 ppm [1]: ≥ 80%; percent control (mortality, anti-feedant effect or growth inhibition) at 200 ppm [3]: ≥ 80%
CC(c1ncnn1-c1ncccn1)N(C)c1ncnc2c(Cl)cc(Cl)cc12 (stereo not drawn) [P.66, 6,8-dichloro-N-methyl-N-[1-(2-pyrimidin-2-yl-1,2,4-triazol-3-yl)ethyl]quianzolin-4-amine] |  | ≥ 80% | percent control (mortality or growth inhibition) at 200 ppm [1]: ≥ 80%; percent control (mortality, anti-feedant effect or growth inhibition) at 200 ppm [3]: ≥ 80%; percent control (mortality or growth inhibition) at 200 ppm [5]: ≥ 80%; mortality at 12 ppm [6]: ≥ 80%
CC(Nc1ccnc2c(Cl)cc(Cl)cc12)c1ncnn1-c1ncccn1 (stereo not drawn) [P.67, 6,8-dichloro-N-[1-(2-pyrimidin-2-yl-1,2,4-triazol-3-yl)ethyl]quinolin-4-amine] |  | ≥ 80% | percent control (mortality or growth inhibition) at 200 ppm [1]: ≥ 80%; percent control (mortality, anti-feedant effect or growth inhibition) at 200 ppm [4]: ≥ 80%; percent control (mortality, anti-feedant effect or growth inhibition) at 200 ppm [3]: ≥ 80%; percent control (mortality or growth inhibition) at 200 ppm [5]: ≥ 80%
CC(Nc1ncnc2c(Cl)cc(Cl)cc12)c1ncnn1-c1ncccn1 (stereo not drawn) [P.68, 6,8-dichloro-N-[1-(2-pyrimidin-2-yl-1,2,4-triazol-3-yl)ethyl]quinazolin-4-amine] |  | ≥ 80% | percent control (mortality or growth inhibition) at 200 ppm [1]: ≥ 80%; percent control (mortality, anti-feedant effect or growth inhibition) at 200 ppm [4]: ≥ 80%; percent control (mortality, anti-feedant effect or growth inhibition) at 200 ppm [3]: ≥ 80%; percent control (mortality or growth inhibition) at 200 ppm [5]: ≥ 80%
CC(Nc1nccc2c(C(F)(F)F)cccc12)c1ncnn1-c1ccccn1 (stereo not drawn) [P.69, N-[1-[2-(2-pyridyl)-1,2,4-triazol-3-yl]ethyl]-5-(trifluoromethyl)isoquino-lin-1-amine] |  | ≥ 80% | 
CC(Nc1ncnc2c(Cl)nccc12)c1nccnc1-n1nccn1 (stereo not drawn) [P.277, 8-chloro-N-[1-[3-(triazol-2-yl)pyrazin-2-yl]ethyl]pyrido[3,4-d]pyrimidin-4-amine] |  | ≥ 80% | 
